Results published in patent US10874745B2, “Antimicrobial peptides and methods of treating gram-negative pathogens: polar and non-polar face analogs” (priority 2017, dated 2020).
“And” between values parts separate entries of the source, which are not always exact repeats. Identical values can stand only once. Like-named read-outs stand apart in the source and are kept apart here. Non-standard residues stand in square brackets, D forms with d. Residues, ends and D or L forms follow the SMILES beside them. dDab = NCC[C@@H](N)C(=O)O

What was measured:
[1] = RP-HPLC retention time as measure of overall peptide hydrophobicity; type: physicochemical; details: Zorbax SB-C8, 0.5% B/min from 2% B, 30° C. (Table 3)
Excerpt: Retention behavior in RP-HPLC is an excellent method to represent overall peptide hydrophobicity. Retention times of peptides are highly sensitive to the conformational status of the peptides upon interaction with the hydrophobic environment of the column matrix (Jiang, Z., et al., Chem. Biol. Drug Des. 2011; Chen, Y., et al., J. Peptide Research 2002, supra). The non-polar faces of amphipathic alpha-helical and amphipathic cyclic beta-sheet peptides represent a preferred binding domain for interaction with the hydrophobic matrix of the reversed-phase column (Zhou, N. E., et al., Peptide Research 1990, 3:8-20). In this study, the observed peptide hydrophobicity was determined by RP-HPLC retention time as described in the methods section and are relative hydrophobicities because they are dependent on the TFA concentration and organic solvent in the mobile phase, gradient rate, temperature, flow rate and the column used. […]

human red blood cells = assay: Hemolytic activity; type: cell-based; details: for HC50: 50% hemolysis of human red blood cells after 18 hours at 37° C.
Experimental: (§1) Hemoglobin release was determined spectrophotometrically at 570 nm. […] […] […] With the peptides used in this study the inventors used the HC30/MIC ratio value to calculate the therapeutic index.

Hemolytic activity = type: cell-based, human; details: 1% human erythrocytes (red blood cells), pH 7.4
Experimental: as §1

[2] = system: clinical isolates of Pseudomonas aeruginosa; type: cell-based; details: geometric mean, 6 clinical isolates of P. aeruginosa
Experimental: (§2) Measurement of Antimicrobial Activity (MIC): The minimal inhibitory concentration (MIC) is defined as the lowest peptide concentration that inhibited bacterial growth. MICs were measured by a standard microtiter dilution method in Mueller Hinton (MH) medium. Briefly, cells were grown overnight at 37° C. in MH broth and were diluted in the same medium. […] The plates were incubated at 37° C. for 24 h, and the MICs were determined.

[3] = system: A. baumannii clinical isolates; assay: MIC, microtiter dilution in Mueller Hinton medium; type: cell-based; details: geometric mean, 7 clinical isolates of A. baumannii
Excerpt: (§3) Gram-Negative Bacterial Strains used in this Study: All the A. baumannii strains used in this study were 1) obtained from the collection of Dr. Anthony A. Campagnari at the University of Buffalo and originally isolated from different patients and organs/tissues (strain 649, blood; strain 689, groin; strain 759, gluteus; strain 884, axilla; strain 985, pleural fluid); 2) were purchased from the American Type Culture Collection (ATCC, Manassas, Va., USA) (strain ATCC 17978, fatal meningitis; and strain ATCC 19606, urine); 3) obtained from MERCK (M89941, M89949, M89951, M89952, M89953, M89955 and M89963). These seven A. baumannii strains were resistant to polymyxin B and polymyxin E (Colistin).
as §2

[4] = system: A. baumannii strains resistant to Polymyxin B and Colistin; type: cell-based; details: geometric mean, 7 A. baumannii strains resistant to polymyxin B and colistin
Excerpt: as §3, §2

[5] = 50% hemolysis of human red blood cells after 18 hours at 37° C., read-out: HC50

| SMILES | tR, relative hydrophilicity/hydrophobicity [1] | Hemolysis of human red blood cells, in words (human red blood cells) | HC50 at 18 h (Hemolytic activity; human) | MICGM [2] | MICGM [3] | HC50 (human red blood cells) | HC50 at 18 h (Hemolytic activity; [5]) | MICGM [4] |
| --- | --- | --- | --- | --- | --- | --- | --- | --- |
| CC(=O)N[C@H](CCCCN)C(=O)N[C@H](CC(C)C)C(=O)N[C@H](CCN)C(=O)N[C@H](CO)C(=O)N[C@H](CC(C)C)C(=O)N[C@H](CC(C)C)C(=O)N[C@H](CCN)C(=O)N[C@@H](C(=O)N[C@H](CC(C)C)C(=O)N[C@H](CO)C(=O)N[C@H](C)C(=O)N[C@H](C)C(=O)N[C@H](CCCCN)C(=O)N[C@H](CCN)C(=O)N[C@H](CCN)C(=O)N[C@H](CCCCN)C(=O)N[C@H](CC(C)C)C(=O)N[C@H](C)C(=O)N[C@@H](C(=O)N[C@H](CC(C)C)C(=O)N[C@H](CC(C)C)C(=O)N[C@H](CCN)C(=O)N[C@H](C)C(=O)N[C@H](CC(C)C)C(=O)N[C@H](CO)C(=O)N[C@H](CO)C(N)=O)[C@H](C)O)[C@H](C)O [Peptide D104, Ac-KL(Dbu)SLL(Dbu)TLSAAK(Dbu)(Dbu)KLATLL(Dbu)ALSS-amide] (Ac-[dK][dL][dDab][dS][dL][dL][dDab][dT][dL][dS][dA][dA][dK][dDab][dDab][dK][dL][dA][dT][dL][dL][dDab][dA][dL][dS][dS]-NH2) | 59.2 min | basically no hemolysis | > 4000 µg/mL and > 1.49 mM | – | – | – | – | – |
| CC(=O)N[C@H](C)C(=O)N[C@H](CC(C)C)C(=O)N[C@H](CCCCN)C(=O)N[C@H](CCCCN)C(=O)N[C@H](CC(C)C)C(=O)N[C@H](CC(C)C)C(=O)N[C@H](CCCCN)C(=O)N[C@@H](C(=O)N[C@H](CC(C)C)C(=O)N[C@H](CO)C(=O)N[C@H](CCCCN)C(=O)N[C@H](C)C(=O)N[C@H](CCCCN)C(=O)N[C@H](C)C(=O)N[C@H](C)C(=O)N[C@H](CCCCN)C(=O)N[C@H](CC(C)C)C(=O)N[C@H](CCCCN)C(=O)N[C@@H](C(=O)N[C@H](CC(C)C)C(=O)N[C@H](CC(C)C)C(=O)N[C@H](CCCCN)C(=O)N[C@H](C)C(=O)N[C@H](CC(C)C)C(=O)N[C@H](CO)C(=O)N[C@H](CCCCN)C(N)=O)[C@H](C)O)[C@H](C)O [D41(Lys13/Lys16)] | – | – | – | 0.8 µM | 0.4 µM | 13.7 µM | 13.7 µM and 39 µg/mL | 0.4 µM |
| CC(=O)N[C@H](C)C(=O)N[C@H](CC(C)C)C(=O)N[C@H](CCCCN)C(=O)N[C@H](CCCCN)C(=O)N[C@H](CC(C)C)C(=O)N[C@H](CC(C)C)C(=O)N[C@H](CCCCN)C(=O)N[C@@H](C(=O)N[C@H](CC(C)C)C(=O)N[C@H](CO)C(=O)N[C@H](CCCCN)C(=O)N[C@H](C)C(=O)N[C@H](CCN)C(=O)N[C@H](C)C(=O)N[C@H](C)C(=O)N[C@H](CCN)C(=O)N[C@H](CC(C)C)C(=O)N[C@H](CCCCN)C(=O)N[C@@H](C(=O)N[C@H](CC(C)C)C(=O)N[C@H](CC(C)C)C(=O)N[C@H](CCCCN)C(=O)N[C@H](C)C(=O)N[C@H](CC(C)C)C(=O)N[C@H](CO)C(=O)N[C@H](CCCCN)C(N)=O)[C@H](C)O)[C@H](C)O [D41(Dbu13/Dbu16)] (Ac-[dA][dL][dK][dK][dL][dL][dK][dT][dL][dS][dK][dA][dDab][dA][dA][dDab][dL][dK][dT][dL][dL][dK][dA][dL][dS][dK]-NH2; N-terminus and C-terminus assumed) | – | – | – | 0.8 µM | 0.6 µM | 24.3 µM | 24.3 µM and 68 µg/mL | 0.5 µM |
| CC(=O)N[C@H](C)C(=O)N[C@H](CC(C)C)C(=O)N[C@H](CCCCN)C(=O)N[C@H](CCCCN)C(=O)N[C@H](CC(C)C)C(=O)N[C@H](CC(C)C)C(=O)N[C@H](CCCCN)C(=O)N[C@@H](C(=O)N[C@H](CC(C)C)C(=O)N[C@H](CO)C(=O)N[C@H](CCCCN)C(=O)N[C@H](C)C(=O)N[C@H](CCCNC(=N)N)C(=O)N[C@H](C)C(=O)N[C@H](C)C(=O)N[C@H](CCCNC(=N)N)C(=O)N[C@H](CC(C)C)C(=O)N[C@H](CCCCN)C(=O)N[C@@H](C(=O)N[C@H](CC(C)C)C(=O)N[C@H](CC(C)C)C(=O)N[C@H](CCCCN)C(=O)N[C@H](C)C(=O)N[C@H](CC(C)C)C(=O)N[C@H](CO)C(=O)N[C@H](CCCCN)C(N)=O)[C@H](C)O)[C@H](C)O [D41(Arg13/Arg16)] | – | – | – | 1.1 µM | 0.6 µM | 7.2 µM | 7.2 µM and 21 µg/mL | 0.8 µM |
